According to patent US20060069132A1, “Azolecarboxamide herbicides” (priority 2004, published 2006):

How the values were obtained:
[1] = test system: small flower umbrella sedge; test: Test B flooded paddy test; assay type: in vivo, Cyperus difformis; settings: 1000 g ai/ha, scale 0 to 100 (0 no effect, 100 complete control)
How it was run: (§1)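 Formulated test chemicals went onto postemergence plants measuring 2 to 18 cm, at one to four leaves. For the paddy assay, species had reached two leaves. Scoring took place 13–15 days later by eye, relative to untreated plants, using 0 for no effect up to 100 for full control.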

[2] = test system: lambsquarters; test: Test B pre-/postemergence herbicide test; assay type: in vivo, Chenopodium album
How it was run: (§2)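 Flooded paddy rice and barnyardgrass were treated at the 2-leaf stage; upland plantings received compound either on sown seed or on 1- to 4-leaf seedlings. All were kept 13–15 days in a greenhouse and scored visually, 0–100, relative to untreated plants.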

[3] = test system: barnyardgrass; test: Test B pre-/postemergence herbicide test; assay type: in vivo, Echinochloa crus-galli
How it was run: (§3)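 Plants compared with untreated controls 13–15 days post-treatment and given a visual 0–100 injury score. Applications: preemergence to seeds; postemergence at 1- to 4-leaf (2–18 cm); paddy species flooded, 2-leaf stage. Vehicle non-phytotoxic, surfactant included.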

[4] = test system: rice; test: Test B flooded paddy test; assay type: in vivo, Oryza sativa; settings: 1000 g ai/ha, scale 0 to 100 (0 no effect, 100 complete control)
How it was run: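 After treating 2-leaf paddy plants or 2–18 cm postemergence plants (1 to 4 leaves) with formulated chemical, researchers kept them in a greenhouse for 13–15 days. Effects were judged visually versus controls: 0 indicates none, 100 total control.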

[5] = test system: corn; test: Test B pre-/postemergence herbicide test; assay type: in vivo, Zea mays
How it was run: as §2

[6] = test system: blackgrass; test: Test B postemergence herbicide test; assay type: in vivo, Alopecurus myosuroides
How it was run: as §1

[7] = test system: ducksalad; test: Test B flooded paddy test; assay type: in vivo, Heteranthera limosa; settings: 1000 g ai/ha, scale 0 to 100 (0 no effect, 100 complete control)
How it was run: as §1

[8] = test system: wild oat; test: Test B postemergence herbicide test; assay type: in vivo, Avena fatua
How it was run: (§4)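 Plants grow to 1- to 4-leaf stage (2–18 cm) for postemergence spraying, or to 2-leaf stage for the paddy test. Formulated compound is applied. Greenhouse holding lasts 13–15 days. Response is scored visually relative to controls, 0 no effect to 100 complete control; a dash means no result.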

[9] = test system: large crabgrass; test: Test B pre-/postemergence herbicide test; assay type: in vivo, Digitaria sanguinalis
How it was run: as §2

[10] = test system: Surinam grass; test: Test B pre-/postemergence herbicide test; assay type: in vivo, Urochloa decumbens
How it was run: as §2

[11] = test system: wheat; test: Test B postemergence herbicide test; assay type: in vivo, Triticum aestivum; set-up: key to Wheat plant response rating: 0 = no effect, 100 = complete control
How it was run: as §4

[12] = test system: morningglory; test: Test B pre-/postemergence herbicide test; assay type: in vivo, Ipomoea coccinea
How it was run: as §3

[13] = test system: pigweed; test: Test B pre-/postemergence herbicide test; assay type: in vivo, Amaranthus retroflexus
How it was run: as §2

[14] = test system: giant foxtail; test: Test B pre-/postemergence herbicide test; assay type: in vivo, Setaria faberi
How it was run: as §2

[15] = test system: barnyardgrass; test: Test B flooded paddy test; assay type: in vivo, Echinochloa crus-galli; settings: 1000 g ai/ha, scale 0 to 100 (0 no effect, 100 complete control)
How it was run: as §1

[16] = test system: cocklebur; test: Test B pre-/postemergence herbicide test; assay type: in vivo, Xanthium strumarium
How it was run: as §3

[17] = 125 g ai/ha; 0 = no effect, 100 = complete control; preemergence
[18] = 500 g ai/ha; visual rating, 0 = no effect, 100 = complete control; preemergence
[19] = postemergence, 125 g ai/ha; visual rating, scale 0 (no effect) to 100 (complete control)
[20] = postemergence, 500 g ai/ha; scale 0 to 100, 0 is no effect, 100 is complete control
[21] = 125 g ai/ha; visual rating, scale 0 (no effect) to 100 (complete control); postemergence

## C=CCN(C)C(=O)c1cccc(NC(=O)c2cc(C(C)(C)C)nn2CC)c1 [Compound 285]
[1]
  Sedge, Umbrella plant response rating: 90
[2]; [17]
  Lambsquarters plant response rating (0 to 100 scale): 100
[2]; [18]
  Plant response rating, Lambsquarters: 100
[2]; [19]
  Lambsquarters plant response rating: 40
[2]; [20]
  Lambsquarters plant response rating: 70
[3]; [17]
  Barnyardgrass plant response rating (0 to 100 scale): 30
[3]; [18]
  Plant response rating, Barnyardgrass: 90
[3]; [19]
  Barnyardgrass plant response rating: 0
[3]; [20]
  Barnyardgrass plant response rating: 10
[4]
  Rice plant response rating: 80
[5]; [17]
  Corn plant response rating (0 to 100 scale): 0
[5]; [18]
  Plant response rating, Corn: 40
[5]; [19]
  Corn plant response rating: 10
[5]; [20]
  Corn plant response rating: 10
[6]; [19]
  Blackgrass plant response rating: 30
[6]; [20]
  Blackgrass plant response rating: 30
[7]
  Ducksalad plant response rating: 90
[8]; [19]
  Oat, Wild plant response rating: 40
[8]; [20]
  Oat, Wild plant response rating: 50
[9]; [17]
  Crabgrass, Large plant response rating (0 to 100 scale): 20
[9]; [18]
  Plant response rating, Crabgrass, Large: 70
[9]; [19]
  Crabgrass, Large plant response rating: 0
[9]; [20]
  Crabgrass, Large plant response rating: 20
[10]; [17]
  Surinam Grass plant response rating (0 to 100 scale): 10
[10]; [18]
  Plant response rating, Surinam Grass: 70
[10]; [19]
  Surinam Grass plant response rating: 10
[10]; [20]
  Surinam Grass plant response rating: 30
[11]; [19]
  Wheat plant response rating: 30
[11]; [20]
  Wheat plant response rating: 40
[12]; [17]
  Morningglory plant response rating (0 to 100 scale): 0
[12]; [18]
  Plant response rating, Morningglory: 10
[12]; [19]
  Morningglory plant response rating: 20
[12]; [20]
  Morningglory plant response rating: 30
[13]; [17]
  Pigweed plant response rating (0 to 100 scale): 100
[13]; [18]
  Plant response rating, Pigweed: 100
[13]; [19]
  Pigweed plant response rating: 70
[13]; [20]
  Pigweed plant response rating: 80
[14]; [17]
  Foxtail, Giant plant response rating (0 to 100 scale): 10
[14]; [18]
  Plant response rating, Foxtail, Giant: 80
[14]; [19]
  Foxtail, Giant plant response rating: 30
[14]; [20]
  Foxtail, Giant plant response rating: 50
[15]
  Barnyardgrass plant response rating: 90
[16]; [17]
  Cocklebur plant response rating (0 to 100 scale): 0
[16]; [18]
  Plant response rating, Cocklebur: 0
[16]; [19]
  Cocklebur plant response rating: 10
[16]; [20]
  Cocklebur plant response rating: 30

## CCc1nn(C(C)(C)C)cc1C(=O)Nc1cc(C(=O)N(C)C)ccn1 [Compound 293]
[1]
  Sedge, Umbrella plant response rating: 80
[2]; [17]
  Lambsquarters plant response rating (0 to 100 scale): 80
[2]; [21]
  Lambsquarters plant response rating: 50
[2]; [18]
  Plant response rating, Lambsquarters: 100
[2]; [20]
  Lambsquarters plant response rating: 70
[3]; [17]
  Barnyardgrass plant response rating (0 to 100 scale): 90
[3]; [21]
  Barnyardgrass plant response rating: 0
[3]; [18]
  Plant response rating, Barnyardgrass: 100
[3]; [20]
  Barnyardgrass plant response rating: 10
[4]
  Rice plant response rating: 90
[5]; [17]
  Corn plant response rating (0 to 100 scale): 70
[5]; [21]
  Corn plant response rating: 10
[5]; [18]
  Plant response rating, Corn: 100
[5]; [20]
  Corn plant response rating: 30
[6]; [21]
  Blackgrass plant response rating: 30
[6]; [20]
  Blackgrass plant response rating: 30
[7]
  Ducksalad plant response rating: 80
[8]; [21]
  Oat, Wild plant response rating: 30
[8]; [20]
  Oat, Wild plant response rating: 50
[9]; [17]
  Crabgrass, Large plant response rating (0 to 100 scale): 100
[9]; [21]
  Crabgrass, Large plant response rating: 0
[9]; [18]
  Plant response rating, Crabgrass, Large: 100
[9]; [20]
  Crabgrass, Large plant response rating: 20
[10]; [17]
  Surinam Grass plant response rating (0 to 100 scale): 90
[10]; [21]
  Surinam Grass plant response rating: 10
[10]; [18]
  Plant response rating, Surinam Grass: 100
[10]; [20]
  Surinam Grass plant response rating: 20
[11]; [21]
  Wheat plant response rating: 20
[11]; [20]
  Wheat plant response rating: 30
[12]; [17]
  Morningglory plant response rating (0 to 100 scale): 40
[12]; [21]
  Morningglory plant response rating: 30
[12]; [18]
  Plant response rating, Morningglory: 100
[12]; [20]
  Morningglory plant response rating: 70
[13]; [17]
  Pigweed plant response rating (0 to 100 scale): 10
[13]; [21]
  Pigweed plant response rating: 10
[13]; [18]
  Plant response rating, Pigweed: 100
[13]; [20]
  Pigweed plant response rating: 40
[14]; [17]
  Foxtail, Giant plant response rating (0 to 100 scale): 60
[14]; [21]
  Foxtail, Giant plant response rating: 20
[14]; [18]
  Plant response rating, Foxtail, Giant: 100
[14]; [20]
  Foxtail, Giant plant response rating: 30
[15]
  Barnyardgrass plant response rating: 90
[16]; [17]
  Cocklebur plant response rating (0 to 100 scale): 60
[16]; [21]
  Cocklebur plant response rating: 20
[16]; [18]
  Plant response rating, Cocklebur: 90
[16]; [20]
  Cocklebur plant response rating: 30

## CCn1nc(C(C)(C)C)cc1C(=O)Nc1cc(C(=S)N(C)C)ccc1F [Compound 294]
[1]
  Sedge, Umbrella plant response rating: 80
[2]; [17]
  Lambsquarters plant response rating (0 to 100 scale): 100
[2]; [21]
  Lambsquarters plant response rating: 70
[2]; [18]
  Plant response rating, Lambsquarters: 100
[2]; [20]
  Lambsquarters plant response rating: 80
[3]; [17]
  Barnyardgrass plant response rating (0 to 100 scale): 100
[3]; [21]
  Barnyardgrass plant response rating: 20
[3]; [18]
  Plant response rating, Barnyardgrass: 100
[3]; [20]
  Barnyardgrass plant response rating: 60
[4]
  Rice plant response rating: 90
[5]; [17]
  Corn plant response rating (0 to 100 scale): 80
[5]; [21]
  Corn plant response rating: 10
[5]; [18]
  Plant response rating, Corn: 100
[5]; [20]
  Corn plant response rating: 50
[6]; [21]
  Blackgrass plant response rating: 20
[6]; [20]
  Blackgrass plant response rating: 60
[7]
  Ducksalad plant response rating: 90
[8]; [21]
  Oat, Wild plant response rating: 40
[8]; [20]
  Oat, Wild plant response rating: 50
[9]; [17]
  Crabgrass, Large plant response rating (0 to 100 scale): 100
[9]; [21]
  Crabgrass, Large plant response rating: 10
[9]; [18]
  Plant response rating, Crabgrass, Large: 100
[9]; [20]
  Crabgrass, Large plant response rating: 20
[10]; [17]
  Surinam Grass plant response rating (0 to 100 scale): 100
[10]; [21]
  Surinam Grass plant response rating: 20
[10]; [18]
  Plant response rating, Surinam Grass: 100
[10]; [20]
  Surinam Grass plant response rating: 40
[11]; [21]
  Wheat plant response rating: 30
[11]; [20]
  Wheat plant response rating: 40
[12]; [17]
  Morningglory plant response rating (0 to 100 scale): 0
[12]; [21]
  Morningglory plant response rating: 10
[12]; [18]
  Plant response rating, Morningglory: 20
[12]; [20]
  Morningglory plant response rating: 20
[13]; [17]
  Pigweed plant response rating (0 to 100 scale): 100
[13]; [21]
  Pigweed plant response rating: 30
[13]; [18]
  Plant response rating, Pigweed: 100
[13]; [20]
  Pigweed plant response rating: 70
[14]; [17]
  Foxtail, Giant plant response rating (0 to 100 scale): 90
[14]; [21]
  Foxtail, Giant plant response rating: 30
[14]; [18]
  Plant response rating, Foxtail, Giant: 100
[14]; [20]
  Foxtail, Giant plant response rating: 50
[15]
  Barnyardgrass plant response rating: 90
[16]; [17]
  Cocklebur plant response rating (0 to 100 scale): 90
[16]; [21]
  Cocklebur plant response rating: 30
[16]; [18]
  Plant response rating, Cocklebur: 100
[16]; [20]
  Cocklebur plant response rating: 30
